Measured values taken from patent US7816522B2, “Triazolone derivatives” (Eisai Co., Ltd., priority 2006, dated 2010).
pIC50: −log10 of the molar value. Counter-ions that a name gives are not always drawn.

Target: T1, human clotting factor VIIa (Homo sapiens, UniProt P08709)
T1 construct: a human clotting factor VIIa (hereinafter, “Factor VIIa”) purified sample; purchased Enzyme Research Laboratories HFVIIa
Experiment: Inhibitory activity against clotting factor VIIa (chromogenic substrate Spectrozyme FVIIa, TF/Factor VIIa enzyme solution)
Format: biochemical
Conditions: human Factor VIIa 5 nmol/L with human TF 10 nmol/L, room temperature 40 minutes, 405 nm
In short: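 Human Factor VIIa (5 nmol/L) with human TF (10 nmol/L) in Tris-BSA buffer pH 7.4 containing 15 mmol/L CaCl2 and cephalin, with Spectrozyme FVIIa substrate. Reaction 40 min at room temperature; 4-nitroanilide read at 405 nm. IC50 by non-linear regression over 100 μmol/L–0.1 nmol/L.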

T1 sequence (P08709 213-466 limits assumed): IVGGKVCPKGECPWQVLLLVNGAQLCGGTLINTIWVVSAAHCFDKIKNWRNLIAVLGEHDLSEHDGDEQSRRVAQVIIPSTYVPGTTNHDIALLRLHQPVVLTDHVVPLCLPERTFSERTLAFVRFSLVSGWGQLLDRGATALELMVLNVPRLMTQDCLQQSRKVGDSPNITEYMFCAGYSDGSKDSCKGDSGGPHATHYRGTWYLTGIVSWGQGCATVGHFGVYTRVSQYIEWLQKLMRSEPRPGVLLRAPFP
T1 sequence (P08709 61-212 limits assumed): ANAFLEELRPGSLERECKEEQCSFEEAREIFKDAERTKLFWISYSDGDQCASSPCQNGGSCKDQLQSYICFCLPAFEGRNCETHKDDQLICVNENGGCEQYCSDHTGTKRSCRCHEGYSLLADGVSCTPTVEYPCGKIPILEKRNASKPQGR
T1 sequence (P13726 33-295 partner): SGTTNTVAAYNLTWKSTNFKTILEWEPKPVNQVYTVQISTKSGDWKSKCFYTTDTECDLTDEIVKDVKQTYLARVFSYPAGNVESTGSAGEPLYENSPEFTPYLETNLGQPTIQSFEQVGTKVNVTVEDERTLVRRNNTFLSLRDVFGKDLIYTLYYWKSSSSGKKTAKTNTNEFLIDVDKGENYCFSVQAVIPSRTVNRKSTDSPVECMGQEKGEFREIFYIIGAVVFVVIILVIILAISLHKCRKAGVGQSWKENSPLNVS

Row | pIC50 | SMILES
1 | 8.55 | COc1cc(C(Nc2ccc(C(=N)N)cc2)c2nn(-c3ccsc3C(=O)O)c(=O)[nH]2)cnc1OC (racemic) [Example 169, 3-{3-[(R) and (S)-(4-carbamimidoylphenylamino)-(5,6-dimethoxypyridin-3-yl)methyl]-5-oxo-4,5-dihydro-[1,2,4]triazol-1-yl}thiophene-2-carboxylic acid acetate]
2 | 7.95 | COc1cc(OCCO)c(F)c(C(Nc2ccc(C(=N)N)cc2)c2nn(-c3ncccc3N)c(=O)[nH]2)c1 (centres unmarked) [Example 200, 4-({[1-(3-Aminopyridin-2-yl)-5-oxo-4,5-dihydro-1H-[1,2,4]triazol-3-yl]-[2-fluoro-3-(2-hydroxyethoxy)-5-methoxyphenyl]methyl}amino)benzamidine]
3 | 7.23 | COc1cc(F)c(C(Nc2ccc(C(=N)N)cc2)c2nn(-c3[nH]ncc3C(=O)O)c(=O)[nH]2)cc1OC (centres unmarked) [Example 157, 5-{3-[(4-carbamimidoylphenylamino)-(2-fluoro-4,5-dimethoxyphenyl)methyl]-5-oxo-4,5-dihydro-[1,2,4]triazol-1-yl}-1H-pyrazole-4-carboxylic acid]
4 | 7.70 | COc1cc(OCCO)cc(C(Nc2ccc(C(=N)N)cc2)c2nn(-c3ncccc3N)c(=O)[nH]2)c1 (centres unmarked) [Example 207, 4-({[1-(3-Aminopyridin-2-yl)-5-oxo-4,5-dihydro-1H-[1,2,4]triazol-3-yl]-[3-(2-hydroxyethoxy)-5-methoxyphenyl]methyl}amino)benzamidine acetate]
5 | 8.43 | COc1cc(OC)cc(C(Nc2ccc(C(=N)N)cc2)c2nn(-c3ncccc3C)c(=O)[nH]2)c1 (racemic) [Example 225, (R) and (S)-4-({(3,5-Dimethoxyphenyl)-[1-(3-methylpyridin-2-yl)-5-oxo-4,5-dihydro-1H-[1,2,4]triazol-3-yl]methyl}amino)benzamidine acetate]
6 | 8.11 | CCOC(=O)c1cn[nH]c1-n1nc(C(Nc2ccc(C(=N)N)cc2)c2cc(OC)c3c(c2F)OCCO3)[nH]c1=O (centres unmarked) [Example 197, 5-{3-[(4-Carbamimidoylphenylamino)-(5-fluoro-8-methoxy-2,3-dihydrobenzo[1,4]dioxin-6-yl)methyl]-5-oxo-4,5-dihydro-[1,2,4]triazol-1-yl}-1H-pyrazole-4-carboxylic acid ethyl ester trifluoroacetate]
7 | 8.57 | CCc1cc(OCCCO)c(F)c(C(Nc2ccc(C(=N)N)cc2)c2nn(-c3ncccc3N)c(=O)[nH]2)c1 (centres unmarked) [Example 204, 4-({[1-(3-Aminopyridin-2-yl)-5-oxo-4,5-dihydro-1H-[1,2,4]triazol-3-yl]-[5-ethyl-2-fluoro-3-(3-hydroxypropoxy)phenyl]methyl}amino)benzamidine acetate]
8 | 7.92 | COCCOc1cc(OC)cc(C(Nc2ccc(C(=N)N)cc2)c2nn(-c3ncccc3N)c(=O)[nH]2)c1F (centres unmarked) [Example 202, 4-({[1-(3-Aminopyridin-2-yl)-5-oxo-4,5-dihydro-1H-[1,2,4]triazol-3-yl]-[2-fluoro-5-methoxy-3-(2-methoxyethoxy)phenyl]methyl}amino)benzamidine acetate]

Further lines, the molecule ahead of its results:

Row | SMILES | pIC50
9 | COc1cc(OCCF)cc(C(Nc2ccc(C(=N)N)cc2)c2nn(-c3ncccn3)c(=O)[nH]2)c1 (racemic) [Example 61, (R) and (S)-4-({[3-(2-fluoroethoxy)-5-methoxyphenyl]-(5-oxo-1-pyrimidin-2-yl-4,5-dihydro-1H-[1,2,4]triazol-3-yl)methyl}amino)benzamidine acetate] | 8.25
10 | CCOc1cc(C(Nc2ccc(C(=N)N)cc2)c2nn(-c3ncccn3)c(=O)[nH]2)cc2c1OCOC2 (racemic) [Example 28, (R) and (S)-4-{[(8-ethoxy-4H-benzo[1,3]dioxin-6-yl)-(5-oxo-1-pyrimidin-2-yl-4,5-dihydro-1H-[1,2,4]triazol-3-yl)methyl]amino}benzamidine acetate] | 8.05
11 | CCOc1cc(C(Nc2ccc(C(=N)N)cc2)c2nn(-c3ncccc3C)c(=O)[nH]2)ccc1OCC(=O)NC (centres unmarked) [Example 127, 2-(4-{(4-carbamimidoylphenylamino)-[1-(3-methylpyridin-2-yl)-5-oxo-4,5-dihydro-1H-[1,2,4]triazol-3-yl]methyl}-2-ethoxyphenoxy)-N-methylacetamide acetate] | 8.03
12 | COc1cc(C(Nc2ccc(C(=N)N)cc2)c2nn(-c3ncccn3)c(=O)[nH]2)cc2c1OCOCC2 (racemic) [Example 130, (R) and (S)-4-{[(4-methoxy-8,9-dihydro-5,7-dioxabenzocyclohepten-2-yl)-(5-oxo-1-pyrimidin-2-yl-4,5-dihydro-1H-[1,2,4]triazol-3-yl)methyl]amino}benzamidine acetate] | 7.97
13 | COc1cc(C(Nc2ccc(C(=N)N)cc2)c2nn(-c3ncccn3)c(=O)[nH]2)cc2c1OCC2OC (racemic) [Example 82, (R) and (S)-4-({(3,7-dimethoxy-2,3-dihydrobenzofuran-5-yl)-(5-oxo-1-pyrimidin-2-yl-4,5-dihydro-1H-[1,2,4]triazol-3-yl)methyl}amino)benzamidine acetate] | 8.12
14 | COc1cc(F)c(C(Nc2ccc(C(=N)N)cc2)c2nn(-c3ncccc3F)c(=O)[nH]2)cc1OC (centres unmarked) [Example 125, 4-({(2-fluoro-4,5-dimethoxyphenyl)-[1-(3-fluoropyridin-2-yl)-5-oxo-4,5-dihydro-1H-[1,2,4]triazol-3-yl]methyl}amino)benzamidine acetate] | 7.99
15 | CCOc1ccc(C(Nc2ccc(C(=N)N)cc2)c2nn(-c3ncccn3)c(=O)[nH]2)cc1OC (racemic) [Example 18, (R) and (S)-4-{[(4-ethoxy-3-methoxyphenyl)-(5-oxo-1-pyrimidin-2-yl-4,5-dihydro-1H-[1,2,4]triazol-3-yl)methyl]amino}benzamidine acetate] | 7.81
16 | COc1cc(C(Nc2ccc(C(=N)N)cc2)c2nn(-c3ncccn3)c(=O)[nH]2)cc(F)c1OC (racemic) [Example 116, (R) and (S)-4-{[(3-fluoro-4,5-dimethoxyphenyl)-(5-oxo-1-pyrimidin-2-yl-4,5-dihydro-1H-[1,2,4]triazol-3-yl)methyl]amino}benzamidine acetate] | 7.92
17 | CCc1cc(OCCN(C)C)c(F)c(C(Nc2ccc(C(=N)N)cc2)c2nn(-c3ccccn3)c(=O)[nH]2)c1 (centres unmarked) [Example 140, 4-({[3-(2-dimethylaminoethoxy)-5-ethyl-2-fluorophenyl]-(5-oxo-1-pyridin-2-yl-4,5-dihydro-1H-[1,2,4]triazol-3-yl)methyl}amino)benzamidine bistrifluoroacetate] | 8.28
18 | COc1cc(C(Nc2ccc(C(=N)N)cc2)c2nn(-c3cccnn3)c(=O)[nH]2)cc(CC#N)c1F (racemic) [Example 146, (R) and (S)-4-{[(3-cyanomethyl-4-fluoro-5-methoxyphenyl)-(5-oxo-1-pyridazin-3-yl-4,5-dihydro-1H-[1,2,4]triazol-3-yl)methyl]amino}benzamidine acetate] | 8.09
19 | COc1cc(C(Nc2ccc(C(=N)N)cc2)c2nn(-c3ncccn3)c(=O)[nH]2)cc2c1OCCCO2 (racemic) [Example 156, (R) and (S)-4-{[(9-methoxy-3,4-dihydro-2H-benzo[b][1,4]dioxepin-7-yl)-(5-oxo-1-pyrimidin-2-yl-4,5-dihydro-1H-[1,2,4]triazol-3-yl)methyl]amino}benzamidine acetate] | 8.28
20 | COCCOc1cc(OC)cc(C(Nc2ccc(C(=N)N)cc2)c2nn(-c3ncccn3)c(=O)[nH]2)c1 (racemic) [Example 6, (R) and (S)-4-({[3-methoxy-5-(2-methoxyethoxy)phenyl]-(5-oxo-1-pyrimidin-2-yl-4,5-dihydro-1H-[1,2,4]triazol-3-yl)methyl}amino)benzamidine acetate] | 7.99
21 | COc1cc(OC)c(F)c(C(Nc2ccc(C(=N)N)cc2)c2nn(-c3ncc[nH]c3=O)c(=O)[nH]2)c1 (racemic) [Example 154, (R) and (S)-4-({(2-fluoro-3,5-dimethoxyphenyl)-[5-oxo-1-(3-oxo-3,4-dihydropyrazin-2-yl)]-4,5-dihydro-1H-[1,2,4]triazol-3-yl]methyl}amino)benzamidine acetate] | 7.68
22 | CCOc1cc(COC)cc(C(Nc2ccc(C(=N)N)cc2)c2nn(-c3ncccn3)c(=O)[nH]2)c1 (centres unmarked) [Example 83, 4-{[(3-ethoxy-5-methoxymethylphenyl)-(5-oxo-1-pyrimidin-2-yl-4,5-dihydro-1H-[1,2,4]triazol-3-yl)methyl]amino}benzamidine acetate] | 7.61
23 | COc1ccc(C(Nc2ccc(C(=N)N)cc2)c2nn(-c3ccccc3C(=O)O)c(=O)[nH]2)cc1OC (racemic) [Example 36, (R) and (S)-2-{3-[(4-carbamimidoylphenylamino)-(3,4-dimethoxyphenyl)methyl]-5-oxo-4,5-dihydro-[1,2,4]triazol-1-yl}benzoic acid acetate] | 8.42
24 | CCOc1cc(C(Nc2ccc(C(=N)N)cc2)c2nn(-c3ncccc3F)c(=O)[nH]2)ccc1OC (racemic) [Example 132, (R) and (S)-4-({(3-ethoxy-4-methoxyphenyl)-[1-(3-fluoro-pyridin-2-yl)-5-oxo-4,5-dihydro-1H-[1,2,4]triazol-3-yl]methyl}amino}benzamidine acetate] | 8.62
25 | CCOc1cc(C(Nc2ccc(C(=N)N)cc2)c2nn(-c3ncccn3)c(=O)[nH]2)ccc1OC (racemic) [Example 17, (R) and (S)-4-{[(3-ethoxy-4-methoxyphenyl)-(5-oxo-1-pyrimidin-2-yl-4,5-dihydro-1H-[1,2,4]triazol-3-yl)methyl]amino}benzamidine acetate] | 8.12
26 | CCOc1cc(OCC)cc(C(Nc2ccc(C(=N)N)cc2)c2nn(-c3ncccn3)c(=O)[nH]2)c1 (racemic) [Example 79, (R) and (S)-4-{[(3,5-diethoxyphenyl)-(5-oxo-1-pyrimidin-2-yl-4,5-dihydro-1H-[1,2,4]triazol-3-yl)methyl]amino}benzamidine trifluoroacetate] | 8.12
